Test results taken from PMC7948455, “Novel drug discovery platform for spinocerebellar ataxia, using fluorescence technology targeting β-III-spectrin” (The Journal of Biological Chemistry, 2020).
“Also recorded” adds a separate entry of the source. Read-outs that look alike come from different tables or passages of the source. Each block holds one compound with its values, some of them ahead of it.

How the values were obtained:
[1] = target: T1, binding of the mutant β-III-spectrin L253P ABD to F-actin (Homo sapiens, UniProt O15020, L253P); test: Primary live-cell FRET assay (GFP-ABD-L253P + Lifeact-mCherry) in HEK293-6E cells; assay type: cell-based; settings: for Shift of FRET: 10 μM; for Effect of Hit compound on primary FRET: LOPAC Hits (10 μM screen, 4SD threshold, 120 min) and dose response
T1 construct: the β-III-spectrin (human) ABD residues 1 to 284; expressed in transfected cells; host or cells: HEK293-6E (pTT5 vector, transient transfection)
Method: To develop a biosensor that monitors the binding of mutant L253P β-III-spectrin to actin filaments in live cells, a FRET approach was tested. A FRET donor construct consisting of green fluorescent protein fused to the N terminus of the mutant ABD (GFP-ABD-L253P) was coexpressed in HEK293-EBNA1-6E (HEK293-6E) cells with a FRET acceptor construct consisting of the actin-binding peptide, Lifeact, fused to the N terminus of red fluorescent protein, mCherry (Lifeact-mCherry). Lifeact is a 17 amino acid peptide derived from the yeast actin-binding protein, ABP140 ([15]). […] The cryo-EM structures of ABD L253P and Lifeact on actin indicate that the binding sites overlap on actin units. With ABD L253P and Lifeact bound on neighboring actin units, we predicted an average distance of ∼80 Å between GFP and mCherry (Fig. 1). With a known Förster distance R0 of 52.4 Å ([17]), this corresponds to FRET value of 0.07, a sufficient signal for a biosensor platform. To design a system most compatible for large production and eventual screening of 50,000+ compound libraries, we used HEK293-6E cells, a suspension cell line that yields greater levels (>threefold) of recombinant protein expression ([18], [19]).
With a constant amount of GFP-ABD-L253P expressed, increased Lifeact-mCherry expression increases FRET with an exponential plateau to 0.12 (Fig. 2A). To measure the nonspecific component of our FRET readout, we concurrently tested expression of mCherry in place of Lifeact-mCherry. For comparison, the Lifeact-mCherry and mCherry fluorescence intensity values (normalized to 1:1 GFP-ABD:Lifeact-mCherry sample) are plotted on the X-axis for samples transfected with different donor-to-acceptor DNA ratios. […] With the trade-off between high FRET and minimal nonspecific FRET, the donor:acceptor ratio 1:2 was chosen for the experiments that followed (Fig. 2A). […] Of note, we also tested the biosensor using WT-ABD, which yielded substantially lower FRET (Fig. S1), consistent with the 1000-fold decrease in affinity of WT-ABD for actin ([10]). We proceeded to test the compatibility of the GFP-ABD-L253P and Lifeact-mCherry assay for primary compound screening and the GFP-ABD-L253P and mCherry assay as a potential high-throughput counter screen.
To test the performance of the assay in HTS, the 1280 LOPAC compounds, together with 256 DMSO controls, were dispensed in 5 nl volumes into individual wells of 1536-well microplates and stored at −20 °C until use. To test the reproducibility of replicate screens on the same day, a single batch of HEK293 cells was transfected with GFP-ABD-L253P and Lifeact-mCherry. In addition, control cells were transfected with only GFP-ABD-L253P, to determine compound effect on donor-only lifetime (τD). To test reproducibility of the screens across different days, identical transfections were performed on another batch of HEK293-6E cells on a second day. Following plate thaw, 5 μl of assay cells were loaded in each well via a multidrop liquid dispenser, and a time course of compound effects (at 20, 120, and 180 min post load) on fluorescence lifetime was acquired using a fluorescence lifetime plate reader (FLT-PR). This technology has been advanced to high-density 1536-well plates in recent years for successful HTS using a range of protein biosensors including sarcoplasmic reticulum Ca-ATPase ([24], [25], [26], [27]), ryanodine receptor ([23], [28]), actin ([20]), tumor necrosis factor receptor 1 ([29], [30]), and tau ([31]).
At 2 × 10^6 cells/ml, HEK293-6E cells were transfected with GFP-ABD-L253P or GFP-ABD-WT (2.4 μg), Lifeact-mCherry (2.4–16.8 μg), mCherry (1.2–16.8 μg), and/or pTT5 (0.8–17.6 μg), as indicated, using the 293fectin protocol (Thermo Fisher Scientific) with 20 μg total DNA. Cells were transfected with either GFP-ABD-L253P or –WT, but coexpression of the WT and mutant isoform was not explored in this study. The cells were harvested 24 h later by centrifugation at 100g for 5 min and then washed twice with PBS. […]

[2] = system: GFP-ABD-L253P to mCherry nonspecific FRET; test: Counter-screen FRET assay (GFP-ABD-L253P + mCherry, nonspecific FRET) in HEK293-6E cells; assay type: cell-based
Text: With a constant amount of GFP-ABD-L253P expressed, increased Lifeact-mCherry expression increases FRET with an exponential plateau to 0.12 (Fig. 2A). To measure the nonspecific component of our FRET readout, we concurrently tested expression of mCherry in place of Lifeact-mCherry. For comparison, the Lifeact-mCherry and mCherry fluorescence intensity values (normalized to 1:1 GFP-ABD:Lifeact-mCherry sample) are plotted on the X-axis for samples transfected with different donor-to-acceptor DNA ratios. […] With the trade-off between high FRET and minimal nonspecific FRET, the donor:acceptor ratio 1:2 was chosen for the experiments that followed (Fig. 2A). […]
At 2 × 10^6 cells/ml, HEK293-6E cells were transfected with GFP-ABD-L253P or GFP-ABD-WT (2.4 μg), Lifeact-mCherry (2.4–16.8 μg), mCherry (1.2–16.8 μg), and/or pTT5 (0.8–17.6 μg), as indicated, using the 293fectin protocol (Thermo Fisher Scientific) with 20 μg total DNA. […] Cell viability and concentration were determined using trypan blue assay and a Countess cell counter (Invitrogen). […]
Time-resolved fluorescence waveforms for each well were fitted based on a one-exponential decay function using least-squares minimization global-analysis software, as detailed previously ([32]). […]

T1 sequence (O15020 1-284 L253P): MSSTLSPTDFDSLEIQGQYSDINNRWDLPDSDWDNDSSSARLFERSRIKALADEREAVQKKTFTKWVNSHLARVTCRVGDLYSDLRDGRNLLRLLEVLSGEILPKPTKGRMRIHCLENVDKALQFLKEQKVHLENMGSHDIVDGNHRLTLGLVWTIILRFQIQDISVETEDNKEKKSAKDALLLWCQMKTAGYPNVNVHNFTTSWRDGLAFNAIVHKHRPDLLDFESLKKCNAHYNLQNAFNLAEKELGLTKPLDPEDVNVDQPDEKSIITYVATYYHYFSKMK

SMILES: CC(C)(C)c1ccc(/C=C/C(=O)Nc2ccc3c(c2)OCCO3)cc1 [AMG 9810]
Shift of FRET [1]: 2 to 14%
Effect of Hit compound on primary FRET [1]: decrease FRET

SMILES: CCCCCCCC/C=C\CCCCCCCC(=O)NCc1ccc(O)c(OC)c1 [olvanil]
Shift of FRET [1]: 2 to 14%
Effect of Hit compound on primary FRET [1]: decrease FRET; also recorded: subtly reduced
Effect of Hit compound on counter-screen FRET ([2]; dose response, GFP-ABD-L253P:mCherry 1:2 and 1:4): no significant effect

SMILES: CO[C@H]1C[C@H](CC[C@H](C)[C@H](O)[C@H](C)[C@H]2OC(=O)/C=C/C(C)=C/C[C@H](O)C[C@@H]3C=CC[C@@H](C[C@H](OC)[C@@H](C)[C@@H](O)C[C@@H](O)[C@H](C)[C@@H]([C@@H](C)[C@@H](O)[C@@H](C)CC[C@H]4C[C@H](OC)C[C@H](C)O4)OC(=O)/C=C/C(C)=C/C[C@H](O)C[C@@H]4C=CC[C@@H](C[C@H](OC)[C@@H](C)[C@@H](O)C[C@@H](O)[C@@H]2C)O4)O3)O[C@@H](C)C1 [swinholide A]
Reduction of Total FRET in primary FRET assay ([1]; 1 μM swinholide A, relative to DMSO): > 50%
EC50 ([1]; Plate A, 1536-well, read-out: EC50 of specific FRET dose response): 241 nM
EC50 ([1]; Plate B, 1536-well, read-out: EC50 of specific FRET dose response): 284 nM
EC50 ([1]; Plate C, 1536-well, read-out: EC50 of specific FRET dose response): 267 nM
Reduction in FRET (Fig. 2B) ([1]; swinholide A (3 μM in Fig. 2B legend), relative to DMSO, n = 3): 56 ± 7%
EC50 ([1]; triplicate 12-point concentration response, 1536-well plates, read-out: EC50 of FRET reduction, average): 264 nM
Effect on counter-screen FRET readout ([2]; swinholide A 3 μM, tegaserod 50 μM, relative to DMSO): did not significantly alter

Next, values leading:

Effect of Hit compound on primary FRET [1]: decrease FRET
SMILES: O=C(O)c1cc([N+](=O)[O-])ccc1NCCCc1ccccc1 [NPPB]

Shift of FRET [1]: 2 to 14%
Effect of Hit compound on primary FRET [1]: decrease FRET
SMILES: CCOc1nc2cccc(C(=O)O)c2n1Cc1ccc(-c2ccccc2-c2nnn[nH]2)cc1 [candesartan]
